Where two headings read alike, the source gives them in different places.
Key:
[1] = target: human Adenosine A1 receptor (Homo sapiens (Human), UniProt P30542); assay: Adenosine receptor TR-FRET binding assay (A1)
Experimental: (§1) All FRET binding experiments were conducted at room temperature in white 384-well plates, in assay binding buffer containing 1× LabMed (Cisbio, France), 100 μg/mL saponin, 1% DMSO and 0.02% pluronic acid. Binding of the fluorescently labelled Adenosine receptor antagonist XAC (CA200645, FRET acceptor) to terbium-labelled A1, A2a, A2b and A3 adenosine receptors (FRET donors) was detected by time-resolved FRET due to the close proximity of the donor and acceptor in a binding event. To investigate the ability of unlabelled test compounds to bind to Adenosine A1, A2a, A2b and A3 receptors, dose response curves were constructed that determined the ability of a range of concentrations to inhibit the binding of 30 nM CA200645 to the A2b receptor and 100 nM CA200645 to the A1, A2a, and A3 receptor.
(§2) Serial dilution (1:3 dilutions) of test compounds in neat DMSO and transfer of a 400 nL sample of test compound into the assay plate was carried out using the Mosquito (TTP Labtech, UK). The compound samples were incubated for 2 hours at room temperature with a fixed concentration of CA200645 defined for each receptor (see above) and CHO cell membranes containing the human Adenosine A1 (0.5 μg/well), A2a (0.3 μg/well), A2b (1 μg/well) or A3 (1 μg/well) receptor in 40 μL of assay buffer. Total and non-specific binding of CA200645 was determined in the absence and presence of 10 μM XAC, respectively. Following 2 hours incubation, the level of CA200645 binding was detected on a Pherastar FSX (BMG Labtech, Germany) using standard TR-FRET settings. The terbium donor was excited with three laser flashes at a wavelength of 337 nm, and donor and acceptor emission was detected at 620 nm and 665 nm wavelengths, respectively. FRET ratios were obtained by multiplying the acceptor/donor ratio value by 10,000. Specific binding was determined by subtracting the non-specific binding FRET ratio from the total binding FRET ratio. Compound IC50 curves were analysed using GraphPad Prism 7.0 (GraphPad, USA) and Ki affinity values were determined from the obtained IC50 values using the method of Cheng and Prusoff.

[2] = target: human Adenosine A2a receptor (Homo sapiens (Human), UniProt P29274); assay: Adenosine receptor TR-FRET binding assay (A2a)
Experimental: as §1, §2

[3] = target: human Adenosine A2b receptor (Homo sapiens (Human), UniProt P29275); assay: Adenosine receptor TR-FRET binding assay (A2b); conditions: inhibition of binding of 30 nM CA200645; CHO cell membranes; Ki from IC50 by Cheng and Prusoff
Experimental: as §1, §2

[4] = inhibition of binding of 100 nM CA200645, CHO cell membranes, Ki from IC50 by Cheng and Prusoff

Sequence of human Adenosine A2b receptor (P29275 whole entry): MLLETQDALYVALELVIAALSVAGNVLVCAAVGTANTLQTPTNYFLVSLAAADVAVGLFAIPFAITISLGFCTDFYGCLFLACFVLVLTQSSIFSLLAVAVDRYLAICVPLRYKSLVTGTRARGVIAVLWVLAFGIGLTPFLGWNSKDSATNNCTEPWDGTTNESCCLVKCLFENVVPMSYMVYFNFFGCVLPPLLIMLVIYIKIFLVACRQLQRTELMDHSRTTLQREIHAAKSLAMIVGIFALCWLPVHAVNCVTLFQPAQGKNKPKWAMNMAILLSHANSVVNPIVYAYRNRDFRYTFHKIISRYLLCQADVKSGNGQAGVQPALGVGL
Sequence of human Adenosine A2a receptor (P29274 whole entry): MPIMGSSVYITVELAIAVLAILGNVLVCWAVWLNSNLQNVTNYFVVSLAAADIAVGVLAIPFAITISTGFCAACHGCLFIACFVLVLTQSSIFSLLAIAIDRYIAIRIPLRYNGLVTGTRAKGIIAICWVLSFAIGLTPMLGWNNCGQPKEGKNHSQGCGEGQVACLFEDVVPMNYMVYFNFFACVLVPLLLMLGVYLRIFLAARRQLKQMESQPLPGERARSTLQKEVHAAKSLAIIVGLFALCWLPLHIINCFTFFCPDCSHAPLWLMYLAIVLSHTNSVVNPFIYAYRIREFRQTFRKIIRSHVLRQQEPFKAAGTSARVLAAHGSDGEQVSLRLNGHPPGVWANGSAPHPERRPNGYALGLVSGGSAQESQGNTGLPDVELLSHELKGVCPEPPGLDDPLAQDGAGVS
Sequence of human Adenosine A1 receptor (P30542 whole entry): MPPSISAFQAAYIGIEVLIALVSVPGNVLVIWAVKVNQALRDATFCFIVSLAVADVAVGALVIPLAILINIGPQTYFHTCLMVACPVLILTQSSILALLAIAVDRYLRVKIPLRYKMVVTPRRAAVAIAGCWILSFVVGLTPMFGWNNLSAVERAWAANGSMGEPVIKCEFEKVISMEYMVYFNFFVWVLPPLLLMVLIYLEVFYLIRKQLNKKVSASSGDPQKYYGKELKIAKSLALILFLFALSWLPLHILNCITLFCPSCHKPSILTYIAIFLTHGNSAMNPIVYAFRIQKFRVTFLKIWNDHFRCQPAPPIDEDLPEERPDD

| Ki [1, 4] [nM] | Ki [2, 4] [nM] | Ki [3] [nM] | Ki [1] [nM] | Ki [2] [nM] | SMILES |
| --- | --- | --- | --- | --- | --- |
| 12 | 0.42 | 2.8 |  |  | Cc1nc(C)c(-c2sc(NC(=O)N3CCC(C)(C#N)CC3)nc2-c2cccc(C#N)c2)o1 [Example 14, 4-Cyano-N-[4-(3-cyanophenyl)-5-(2,4-dimethyloxazol-5-yl)thiazol-2-yl]-4-methyl-piperidine-1-carboxamide] |
| 9 | 0.26 | 3.6 |  |  | Cc1ncnc2ccc(-c3sc(NC(=O)N4CCOC(C(C)(C)O)C4)nc3-c3cccc(C#N)c3)cc12 (racemic) [Example 7.7, N-[4-(3-Cyanophenyl)-5-(4-methylquinazolin-6-yl)thiazol-2-yl]-2-(1-hydroxy-1-methyl-ethyl)morpholine-4-carboxamide] |
| 7 | 0.85 | 4.7 |  |  | N#Cc1cccc(-c2nc(NC(=O)N3CC4(COC4)C3)sc2-c2ccc3ncncc3c2)c1 [Example 10, N-[4-(3-Cyanophenyl)-5-quinazolin-6-yl-thiazol-2-yl]-2-oxa-6-azaspiro[3.3]heptane-6-carboxamide] |
| 125 | 1.01 | 4.8 |  |  | Cc1ncnc2ccc(-c3sc(NC(=O)N4CCN(C5CCN(C)CC5)CC4)nc3-c3cccc(C#N)c3)cc12 [Example 7.13, N-[4-(3-Cyanophenyl)-5-(4-methylquinazolin-6-yl)thiazol-2-yl]-4-(1-methyl-4-piperidyl)piperazine-1-carboxamide] |
| 2 | 0.16 | 1.7 |  |  | CCc1ncnc2ccc(-c3sc(NC(=O)N4CC5(COC5)C4)nc3-c3cccc(C#N)c3)cc12 [Example 13, N-[4-(3-Cyanophenyl)-5-(4-ethylquinazolin-6-yl)thiazol-2-yl]-2-oxa-6-azaspiro[3.3]heptane-6-carboxamide] |
| 14 | 0.59 | 13.2 |  |  | Cc1cc(-c2sc(NC(=O)N3CC4(COC4)C3)nc2-c2cccc(C#N)c2)cc2cnn(C)c12 [Example 30, N-[4-(3-Cyanophenyl)-5-(1,7-dimethylindazol-5-yl)thiazol-2-yl]-2-oxa-6-azaspiro[3.3]heptane-6-carboxamide] |
| 14 | 1.74 | 6.2 |  |  | Cc1nc(C)c(-c2sc(NC(=O)N3CC4(COC4)C3)nc2-c2cccc(C#N)c2)o1 [Example 15, N-[4-(3-Cyanophenyl)-5-(2,4-dimethyloxazol-5-yl)thiazol-2-yl]-2-oxa-6-azaspiro[3.3]heptane-6-carboxamide] |
|  |  | 2.4 | 30 | 0.3 | Cc1ncnc2ccc(-c3sc(NC(=O)N4CCC5(COCCN5)C4)nc3-c3cccc(C#N)c3)cc12 (stereo not drawn) [Example 4.3, N-[4-(3-Cyanophenyl)-5-(4-methylquinazolin-6-yl)thiazol-2-yl]-9-oxa-2,6-diazaspiro[4.5]decane-2-carboxamide] |
| 245 | 10.5 | 7.2 |  |  | Cc1cc(-c2sc(NC(=O)N3CC4(COC4)C3)nc2-c2cccc(C#N)c2)c2ccn(C)c2n1 [Example 24, N-[4-(3-Cyanophenyl)-5-(1,6-dimethylpyrrolo[2,3-b]pyridin-4-yl)thiazol-2-yl]-2-oxa-6-azaspiro[3.3]heptane-6-carboxamide] |
| 70 | 5.45 | 6 |  |  | Cc1nc(C)c2cc(-c3sc(NC(=O)N4CC5(COC5)C4)nc3-c3cccc(C#N)c3)ccc2n1 [Example 9, N-[4-(3-Cyanophenyl)-5-(2,4-dimethylquinazolin-6-yl)thiazol-2-yl]-2-oxa-6-azaspiro[3.3]heptane-6-carboxamide] |
| 2 | 0.12 | 0.9 |  |  | Cc1ncnc2ccc(-c3sc(NC(=O)N4CC[C@](C)(C#N)C4)nc3-c3cccc(C#N)c3)cc12 [Example 1, (3S)-3-Cyano-N-[4-(3-cyanophenyl)-5-(4-methylquinazolin-6-yl)thiazol-2-yl]-3-methyl-pyrrolidine-1-carboxamide] |
| 12 | 0.42 | 2.8 |  |  | Cc1ncnc2ccc(-c3sc(NC(=O)N4CCC5(CC4)CN(C)CCO5)nc3-c3cccc(C#N)c3)cc12 [Example 7.10, N-[4-(3-Cyanophenyl)-5-(4-methylquinazolin-6-yl)thiazol-2-yl]-4-methyl-1-oxa-4,9-diazaspiro[5.5]undecane-9-carboxamide] |
| 21 | 0.1 | 1.9 |  |  | Cc1ncnc2ccc(-c3sc(NC(=O)N4CCC(OCCN5CCCC5)C4)nc3-c3cccc(C#N)c3)cc12 (stereo not drawn) [Example 7.9, N-[4-(3-Cyanophenyl)-5-(4-methylquinazolin-6-yl)thiazol-2-yl]-3-(2-pyrrolidin-1-ylethoxy)pyrrolidine-1-carboxamide] |
| 11 | 0.38 | 2.2 |  |  | Cc1ncnc2ccc(-c3sc(NC(=O)N4CCCNCC4)nc3-c3cccc(C#N)c3)cc12 [Example 7.18, N-[4-(3-Cyanophenyl)-5-(4-methylquinazolin-6-yl)thiazol-2-yl]-1,4-diazepane-1-carboxamide] |
| 150 | 2.61 | 5.4 |  |  | Cc1ncnc2ccc(-c3sc(NC(=O)N4CCC(N5CCOCC5)CC4)nc3-c3cccc(C#N)c3)cc12 [Example 7.14, N-[4-(3-Cyanophenyl)-5-(4-methylquinazolin-6-yl)thiazol-2-yl]-4-morpholino-piperidine-1-carboxamide] |
|  |  | 3 | 34 | 0.35 | Cc1ncnc2ccc(-c3sc(NC(=O)N4CC5(COCCN5)C4)nc3-c3cccc(C#N)c3)cc12 [Example 4.2, N-[4-(3-Cyanophenyl)-5-(4-methylquinazolin-6-yl)thiazol-2-yl]-8-oxa-2,5-diazaspiro[3.5]nonane-2-carboxamide] |
| 17 | 0.18 | 2.6 |  |  | Cc1ncnc2ccc(-c3sc(NC(=O)N4CCN[C@H](C(C)(C)O)C4)nc3-c3cccc(C#N)c3)cc12 [Example 7.16, (3S)-N-[4-(3-Cyanophenyl)-5-(4-methylquinazolin-6-yl)thiazol-2-yl]-3-(1-hydroxy-1-methyl-ethyl)piperazine-1-carboxamide] |
| 13 | 0.08 | 0.9 |  |  | Cc1ncnc2ccc(-c3sc(NC(=O)N4CC5(CCO5)C4)nc3-c3cccc(C#N)c3)cc12 [Example 7.19, N-[4-(3-Cyanophenyl)-5-(4-methylquinazolin-6-yl)thiazol-2-yl]-1-oxa-6-azaspiro[3.3]heptane-6-carboxamide] |

| SMILES | Ki [1, 4] [nM] | Ki [2, 4] [nM] | Ki [3] [nM] | Ki [1] [nM] | Ki [2] [nM] |
| --- | --- | --- | --- | --- | --- |
| Cc1ncnc2ccc(-c3sc(NC(=O)N4CCC(N5CCN(C)CC5)CC4)nc3-c3cccc(C#N)c3)cc12 [Example 7.12, N-[4-(3-Cyanophenyl)-5-(4-methylquinazolin-6-yl)thiazol-2-yl]-4-(4-methylpiperazin-1-yl)piperidine-1-carboxamide] | 221 | 2.05 | 6.5 |  |  |
| Cc1ncnc2ccc(-c3sc(NC(=O)N4CC5CCCN(C)C5C4)nc3-c3cccc(C#N)c3)cc12 (stereo not drawn) [Example 7.11, N-[4-(3-Cyanophenyl)-5-(4-methylquinazolin-6-yl)thiazol-2-yl]-1-methyl-3,4,4a,5,7,7a-hexahydro-2H-pyrrolo[3,4-b]pyridine-6-carboxamide] | 98 | 0.54 | 5.4 |  |  |
